In patent US20050129772A1, “Compositions comprising an HIV protease inhibitor” (Agouron Pharmaceuticals, Inc., priority 2003, published 2005):
Where “and” joins values, the source holds several entries; their conditions need not be identical. Equal values may be shown once.

Key:
[1] = in vitro dissolution test in PBS at pH 6.5 and 290 mOsm/kg, 37° C.; assay type: physicochemical; set-up: AUC: concentration or dose not given beside the values; conditions: for AUC90 (area under the concentration-versus-time curve during the initial ninety minutes) / AUC1200 / C1200 (Compound A concentration at 1200 minutes) / MDC90 (maximum concentration of drug during the initial ninety minutes): dose 3000 μg/mL; for Compound A Concentration: 3000 μg/mL if all dissolved
Description: An in vitro dissolution test was performed to determine whether the amorphous Compound A of Example 1 provides concentration-enhancement relative to the crystalline form of Compound A. For this test, a sufficient amount of material was added to a microcentrifuge test tube so that the concentration of Compound A would have been 3000 μg/mL, if all of Compound A had dissolved. The test was run in duplicate. The tubes were placed in a 37° C. temperature-controlled chamber, and 1.8 mL PBS at pH 6.5 and 290 mOsm/kg was added to each respective tube. The samples were quickly mixed using a vortex mixer for about 60 seconds. The samples were centrifuged at 13,000 G at 37° C. for 1 minute. The resulting supernatant solution was then sampled and diluted 1:6 (by volume) with methanol and then analyzed by high-performance liquid chromatography (HPLC). HPLC analysis was performed using a Phenomenex Luna C18 column. The mobile phase consisted of 55% 20 mM KH2PO4, adjusted to pH 3 with H3PO4, and 45% acetonitrile. UV absorbance was measured at 210 nm. The contents of each tube were mixed on the vortex mixer and allowed to stand undisturbed at 37° C. until the next sample was taken. Samples were collected at 4, 10, 20, 40, 90 and 1200 minutes. Control 1 consisted of crystalline Form I of Compound A alone, and a sufficient amount of material was added so that the concentration of Compound A would have been 3000 μg/mL, if all of Compound A had dissolved. The concentrations of drug obtained in these samples were used to determine the maximum concentration of drug (“MDC90”), the area under the concentration-versus-time curve (“AUC90”) during the initial ninety minutes, and the Compound A concentration at 1200 minutes (“[…]”). Example 2 was prepared by combining amorphous Compound A and a concentration-enhancing polymer. A simple physical mixture of Compound A and the concentration-enhancing polymer hydroxypropyl methyl cellulose acetate succinate (AQUOT-MG, available from Shin Etsu, Tokyo, Japan) was prepared by adding 5.4 mg of amorphous Compound A prepared as in Example 1 and 0.6 mg of HPMCAS to a centrifuge tube. The dry powders were mixed using a vortex mixer for 1 minute. Dissolution tests were performed as described in Example 1. […] For these tests, a sufficient amount of material was added so that the concentration of Compound A would have been 3000 μg/mL, if all of Compound A had dissolved. […] Examples 37A, 37B and 37C were prepared as in Example 2, but with the following exceptions: Example 37A was 5.4 mg Compound A and 0.6 mg HPMCAS; Example 37B was 5.4 mg Compound A and 0.167 mg HPMCAS; and Example 37C was 5.4 mg Compound A and 0.055 mg HPMCAS. Example 37D consisted of amorphous Compound A alone. MDC360 is the maximum dissolved drug concentration within the first 360 minutes, and AUC360 is the area under the dissolved drug concentration versus time curve at 360 minutes.

[2] = oral dosing to fasted beagle dogs, plasma drug concentration; assay type: in vivo; conditions: 25 mgA/kg; for AUC0-Tlast: oral gavage suspension in 0.5 wt % Methocel, plasma
Description: The area under the concentration-versus-time curve (“AUCO-Tlast”, ng*hr/mL), from the time the dose was administered to the last sample, is shown in Table 17. Crystalline Form I of Compound A (Control 1) and amorphous Compound A (Example 1) were tested using a similar protocol. The dose was administered to dogs as a suspension in a solution containing 0.5 wt % Methocel® (HPMC, USP grade, 4000 cps, Dow Chemical Co.). Oral administration of the aqueous drug suspensions was facilitated using an oral gavage equipped with a polyethylene tube insert. The polyethylene tube insert was used to accurately deliver the desired volume of dose by displacement, without the need for additional volume of water to rinse the tube. The dose was 25 mgA/kg (“mgA” refers to mg of active drug).

[3] = aqueous solubility of crystalline Compound A; assay type: physicochemical; conditions: 26° C.
Text: The compound (4R)—N-allyl-3-{(2S,3S)-2-hydroxy-3-[(3-hydroxy-2-methylbenzoyl)amino]-4-phenylbutanoyl}-5,5-dimethyl-1,3-thiazolidine-4-carboxamide (also called “(R)-3-((2S,3S)-2-hydroxy-3-{[1-(3-hydroxy-2-methyl-phenyl)-methanoyl]-amino}-4-phenyl-butanoyl)-5,5-dimethyl-thiazolidine-4-carboxylic acid allylamide,” “(4R)-3-[(2S,3S)-2-hydroxy-3-(3-hydroxy-2-methyl-benzoylamino)-4-phenyl-butyryl]-5,5-dimethyl-thiazolidine-4-carboxylic acid allylamide,” or “4-thiazolidinecarboxamide, 3-[(2S,3S)-2-hydroxy-3-[(3-hydroxy-2-methylbenzoyl)amino]-1-oxo-4-phenylbutyl]-5,5-dimethyl-N-2-propenyl-, (4R)-,” and hereinafter referred to as “Compound A”) is an inhibitor of the HIV protease enzyme that may be used for the treatment of HIV-infected mammals, such as humans. Compound A and its preparation are disclosed in U.S. patent application Ser. Nos. 10/166,979 filed Jun. 11, 2002; 60/527,477, filed Dec. 4, 2003, and, 10/782,602, filed Dec. 4, 2003, all of which incorporated herein by reference for this purpose. […] This low aqueous solubility, combined with a low in vivo permeability, result in low oral bioavailability for crystalline Compound A.

[4] = time 10 min, PBS pH 6.5, 37° C.
[5] = time 20 min, PBS pH 6.5, 37° C.
[6] = time 40 min, PBS pH 6.5, 37° C.
[7] = time 90 min, PBS pH 6.5, 37° C.
[8] = time 1200 min, PBS pH 6.5, 37° C.
[9] = PBS pH 6.5, 37° C., listed as Ex 1

Compound	AUC90 (area under the concentration-versus-time curve during the initial ninety minutes) ([1]; PBS pH 6.5, 37° C.)	AUC1200 ([1]; PBS pH 6.5, 37° C.)	C1200 (Compound A concentration at 1200 minutes) ([1]; PBS pH 6.5, 37° C.) [µg/mL]	MDC90 (maximum concentration of drug during the initial ninety minutes) ([1]; PBS pH 6.5, 37° C.)	AUC ([1]; time 0 min, PBS pH 6.5, 37° C.) [µg·min/mL]	Compound A Concentration ([1]; time 0 min, PBS pH 6.5, 37° C.) [µg/mL]	AUC ([1]; time 4 min, PBS pH 6.5, 37° C.) [µg·min/mL]	Compound A Concentration ([1]; time 4 min, PBS pH 6.5, 37° C.) [µg/mL]	AUC [1, 4] [µg·min/mL]	Compound A Concentration [1, 4] [µg/mL]	AUC [1, 5]	Compound A Concentration [1, 5] [µg/mL]	AUC [1, 6]	Compound A Concentration [1, 6] [µg/mL]	AUC [1, 7]	Compound A Concentration [1, 7] [µg/mL]	AUC [1, 8]	Compound A Concentration [1, 8] [µg/mL]	AUC0-Tlast [2] [ng·h/mL]	further results
C=CCNC(=O)[C@H]1N(C(=O)[C@@H](O)[C@H](Cc2ccccc2)NC(=O)c2cccc(O)c2C)CSC1(C)C [Example 37D, (4R)—N-allyl-3-{(2S,3S)-2-hydroxy-3-[(3-hydroxy-2-methylbenzoyl)amino]-4-phenylbutanoyl}-5,5-dimethyl-1,3-thiazolidine-4-carboxamide]																				AUC360 (area under the dissolved drug concentration versus time curve at 360 minutes) ([1]; dissolution as in Example 2): 180,000 min*μg/ml; MDC360 (maximum dissolved drug concentration within the first 360 minutes) ([1]; dissolution as in Example 2): 1190 µg/mL; C1200 ([1]; dissolution as in Example 2 (Example 37 series)): 140 µg/mL
C=CCNC(=O)[C@H]1N(C(=O)[C@@H](O)[C@H](Cc2ccccc2)NC(=O)c2cccc(O)c2C)CSC1(C)C [Control 1, (4R)—N-allyl-3-{(2S,3S)-2-hydroxy-3-[(3-hydroxy-2-methylbenzoyl)amino]-4-phenylbutanoyl}-5,5-dimethyl-1,3-thiazolidine-4-carboxamide]	9200 µg·min/mL	132,000 min*μg/mL	109	112 µg/mL	0	0	200	100	800	100	1800 µg·min/mL	106	3900 µg·min/mL	101	9200 µg·min/mL	112	131,700 min * μg/mL	109	300	
C=CCNC(=O)[C@H]1N(C(=O)[C@@H](O)[C@H](Cc2ccccc2)NC(=O)c2cccc(O)c2C)CSC1(C)C [Compound A, (4R)—N-allyl-3-{(2S,3S)-2-hydroxy-3-[(3-hydroxy-2-methylbenzoyl)amino]-4-phenylbutanoyl}-5,5-dimethyl-1,3-thiazolidine-4-carboxamide]																				aqueous solubility ([3]; 0.1 N HCl (pH 1.2)): about 0.16 mgA/mL; aqueous solubility ([3]; normal saline (pH 8.2)): ~0.14 mgA/mL; aqueous solubility ([3]; unbuffered water (pH 8.3)): about 0.16 mgA/mL
C=CCNC(=O)[C@H]1N(C(=O)[C@@H](O)[C@H](Cc2ccccc2)NC(=O)c2cccc(O)c2C)CSC1(C)C [Example 1, (4R)—N-allyl-3-{(2S,3S)-2-hydroxy-3-[(3-hydroxy-2-methylbenzoyl)amino]-4-phenylbutanoyl}-5,5-dimethyl-1,3-thiazolidine-4-carboxamide]	75,900 min * μg/mL	233,000 min*μg/mL	126	1153 µg/mL and 1150 µg/mL	0	0	2100	1070	8800	1140	20,200 min * μg/mL	1150	43,200 min * μg/mL	1150	75,900 min * μg/mL	158	233,200 min * μg/mL	126	3500	AUC90 relative to crystalline Form I of Compound A ([1]; PBS pH 6.5, 37° C.): 8.3 fold; MDC relative to crystalline Form I of Compound A ([1]; PBS pH 6.5, 37° C.): 10.3 fold; AUC90 (area under the concentration-versus-time curve during the initial ninety minutes) [1, 9]: 75,900 min * μg/mL; C1200 (Compound A concentration at 1200 minutes) [1, 9]: 126 µg/mL; MDC90 (maximum concentration of drug during the initial ninety minutes) [1, 9]: 1150 µg/mL; relative bioavailability (AUC of test composition divided by AUC of crystalline Form I of Compound A alone) ([2]; oral): 11.7 fold
